In patent US8163935B2, “Fused heterocyclic compounds” (Takeda Pharmaceutical Company Limited, priority 2005, dated 2012):
Counter-ions that a name gives are not always drawn.

Key:
human CRF receptor = target: T1, human CRF receptor (Homo sapiens, UniProt P34998); experiment: Corticotropin-releasing factor (CRF) receptor binding experiment with 125I-CRF; conditions: human CRF receptor expressing CHO cellular membrane fraction; for inhibition at 1 µM: 1000 nM test compound, 50 pM 125I-CRF, read-out: Binding inhibitory rate (%) 1000 nM; for IC50: 125I-CRF, GraphPad Prism
T1 construct: expressed in transfected cells; host or cells: CHO cells (membrane fraction)
T1 sequence (P34998 24-415): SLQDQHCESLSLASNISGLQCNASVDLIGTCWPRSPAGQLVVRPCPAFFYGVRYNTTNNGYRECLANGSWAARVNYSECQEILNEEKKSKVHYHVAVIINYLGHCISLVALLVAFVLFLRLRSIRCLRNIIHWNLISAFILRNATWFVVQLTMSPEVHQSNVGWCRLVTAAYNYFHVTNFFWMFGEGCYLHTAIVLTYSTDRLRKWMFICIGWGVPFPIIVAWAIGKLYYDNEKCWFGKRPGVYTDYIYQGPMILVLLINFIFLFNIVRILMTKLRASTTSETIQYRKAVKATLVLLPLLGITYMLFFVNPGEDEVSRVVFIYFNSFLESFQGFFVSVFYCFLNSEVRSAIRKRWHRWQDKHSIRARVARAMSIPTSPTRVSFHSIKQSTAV
Method: A receptor binding experiment was carried out using a human CRF receptor expressing CHO cellular membrane fraction and ovine CRF, [^125I]-tyr^0 (^125I-CRF). 1000 nM of a test compound was incubated with 1 μg of human CRF receptor expressing CHO cellular membrane fraction and 50 pM of ^125I-CRF in a binding assay buffer (50 mM Tris-HCl, 5 mM EDTA, 10 mM MgCl2, 0.05% CHAPS, 0.1% BSA, 0.5 mM PMSF, 0.1 μg/ml pepstatin, 20 μg/ml leupeptin, pH 7.5). In addition, for measuring nonspecific binding (NSB), 0.1 μM unlabelled human Urocortin was incubated with 1 μg of human CRF receptor expressing CHO cellular membrane fraction and 50 pM of ^125I-CRF in a binding assay buffer. After a binding reaction was carried out at room temperature for 1.5 hour, the membrane was entrapped on a glass filter (UniFilter plate GF-C/Perkin Elmer) by suction filtration using a cell harvester (Perkin Elmer), and washed with ice-cooled 50 mM Tris-HCl (pH 7.5). After drying the glass filter, a liquid scintillation cocktail (Microscinti 0, Perkin Elmer) was added, and the radioactivity of ^125I-CRF remaining on a glass filter was measured using Topcount (Perkin Elmer).
(TB−SB)/(TB−NSB)×100 (SB: radioactivity when a compound is added, TB: maximum binding radioactivity, NSB: nonspecific binding radioactivity) was calculated to obtain a binding inhibitory rate under the presence of 1,000 nM of each test substances. The IC50 values were calculated by using GraphPad Prism software.

Structure (SMILES) | inhibition at 1 µM (human CRF receptor) [%] | IC50 (human CRF receptor) [nM] | melting point [°C]
COc1cc(Br)cc(C)c1Nc1nc2cccc(-n3c(C)ccc3C)c2n1C [Example 69, N-(4-Bromo-2-methoxy-6-methylphenyl)-7-(2,5-dimethyl-1H-pyrrol-1-yl)-1-methyl-1H-benzimidazol-2-amine] | > 80 |  | 
CCc1cc(CC)n(-c2cccc3nc(Nc4c(C)cc(Br)cc4OC)n(C)c23)n1 [Example 66, N-(4-Bromo-2-methoxy-6-methylphenyl)-7-(3,5-diethyl-1H-pyrazol-1-yl)-1-methyl-1H-benzimidazol-2-amine] |  | 10 to 50 | 
CCCC(CCC)c1cccc2nc(Nc3c(C)cc(Br)cc3OC)n(C)c12 [Example 1, N-(4-Bromo-2-methoxy-6-methylphenyl)-1-methyl-7-(1-propylbutyl)-1H-benzimidazol-2-amine Hydrochloride] | > 80 |  | 
CCC(CC)c1ccc(Cl)c2nc(Nc3c(C)cc(Br)cc3OC)n(C)c12 [Example 77, N-(4-Bromo-2-methoxy-6-methylphenyl)-4-chloro-7-(1-ethylpropyl)-1-methyl-1H-benzimidazol-2-amine] | > 80 | 10 to 50 | 218 to 220
CNCc1ccccc1-c1cccc2nc(Nc3c(C)cc(Cl)cc3OC)n(C)c12 [Example 64, N-(4-Chloro-2-methoxy-6-methylphenyl)-1-methyl-7-{2-[(methylamino)methyl]phenyl}-1H-benzimidazol-2-amine] | > 80 |  | 
CCC(CC)c1ccc(OC)c2nc(Oc3c(C)cc(Cl)cc3Cl)n(C)c12 [Example 145, 2-(2,4-Dichloro-6-methylphenoxy)-7-(1-ethylpropyl)-4-methoxy-1-methyl-1H-benzimidazole] |  | < 10 | 130 to 131
CCC(CC)c1ccc(Cl)c2nc(Nc3c(C)cc(Cl)cc3OC)n(CCO)c12 [Example 103, 2-[4-Chloro-2-[(4-chloro-2-methoxy-6-methylphenyl)amino]-7-(1-ethylpropyl)-1H-benzimidazol-1-yl]ethanol] | > 80 |  | 
CCc1ccccc1-c1cccc2nc(Nc3c(C)cc(Cl)cc3OC)n(C)c12 [Example 15, N-(4-Chloro-2-methoxy-6-methylphenyl)-7-(2-ethylphenyl)-1-methyl-1H-benzimidazol-2-amine] |  | 10 to 50 | 
CCCC(CC)c1nccc2nc(Nc3c(C)cc(Br)cc3OC)n(C)c12 (stereo not shown) [Example 9, N-(4-Bromo-2-methoxy-6-methylphenyl)-4-(1-ethylbutyl)-3-methyl-3H-imidazo[4,5-c]pyridin-2-amine] | > 80 |  | 
CCC(CC)c1ccc(C)c2nc(Nc3c(C)cc(Cl)cc3OC)n(C)c12 [Example 101, N-(4-Chloro-2-methoxy-6-methylphenyl)-7-(1-ethylpropyl)-1,4-dimethyl-1H-benzimidazol-2-amine] | > 80 | < 10 | 
CCC(CC)c1ccc(Cl)c2nc(Nc3ccc(Cl)cc3Br)n(C)c12 [Example 84, N-(2-Bromo-4-chlorophenyl)-4-chloro-7-(1-ethylpropyl)-1-methyl-1H-benzimidazol-2-amine] | > 80 |  | 136 to 138
